Legend:
[1] = target: Tyrosine-protein kinase Fgr (Homo sapiens, UniProt P09769); experiment: Inhibition of FGR (unknown origin)
Homo sapiens [2] = species: Homo sapiens; experiment: Selectivity ratio of IC50 for PTK6 (unknown origin) to IC50 for BTK (unknown origin)
Homo sapiens [3] = species: Homo sapiens; experiment: Selectivity ratio of IC50 for SRMS (unknown origin) to IC50 for BTK (unknown origin)
Homo sapiens [4] = species: Homo sapiens; experiment: Selectivity ratio of IC50 for FRK (unknown origin) to IC50 for BTK (unknown origin)
[5] = target: Voltage-gated inwardly rectifying potassium channel KCNH2 (Homo sapiens, UniProt Q12809); experiment: Inhibition of human ERG by [35S]-MK499 displacement or iKr channel assay
[6] = target: Tyrosine-protein kinase Fyn (Homo sapiens, UniProt P06241); experiment: Inhibition of FYN (unknown origin)
[7] = target: Proto-oncogene tyrosine-protein kinase Src (Homo sapiens, UniProt P12931); experiment: Inhibition of SRC (unknown origin)
Homo sapiens [8] = species: Homo sapiens; experiment: Selectivity ratio of IC50 for TXK (unknown origin) to IC50 for BTK (unknown origin)
[9] = target: T1, Tyrosine-protein kinase BTK (Homo sapiens, UniProt Q06187); experiment: Inhibition of recombinant full-length His6-tagged BTK (unknown origin) expressed in baculovirus infected Sf9 cells using biotinylated A5 peptide as substrate preincubated for 60 mins followed by substrate addition measured after 120 mins by LANCE TR-FRET assay
[10] = target: T1, Tyrosine-protein kinase BTK; experiment: Inhibition of BTK in human PBMC assessed as reduction in anti-IgM-induced MIP1beta
[11] = target: Tyrosine-protein kinase CSK (Homo sapiens, UniProt P41240); experiment: Inhibition of CSK (unknown origin)
[12] = target: Receptor tyrosine-protein kinase erbB-4 (Homo sapiens, UniProt Q15303); experiment: Inhibition of ERBB4 (unknown origin)
Homo sapiens [13] = species: Homo sapiens; experiment: Selectivity ratio of IC50 for SRC (unknown origin) to IC50 for BTK (unknown origin)
[14] = target: Protein-tyrosine kinase 6 (Homo sapiens, UniProt Q13882); experiment: Inhibition of PTK6 (unknown origin)
Homo sapiens [15] = species: Homo sapiens; experiment: Selectivity ratio of IC50 for FYN (unknown origin) to IC50 for BTK (unknown origin)
Homo sapiens [16] = species: Homo sapiens; experiment: Selectivity ratio of IC50 for LCK (unknown origin) to IC50 for BTK (unknown origin)
[17] = target: Tyrosine-protein kinase Lyn (Homo sapiens, UniProt P07948); experiment: Inhibition of LYNB (unknown origin)
[18] = target: Tyrosine-protein kinase FRK (Homo sapiens, UniProt P42685); experiment: Inhibition of FRK (unknown origin)
[19] = target: Tyrosine-protein kinase Srms (Homo sapiens, UniProt Q9H3Y6); experiment: Inhibition of SRMS (unknown origin)
[20] = target: Tyrosine-protein kinase Blk (Homo sapiens, UniProt P51451); experiment: Inhibition of BLK (unknown origin)
[21] = target: T2, Tyrosine-protein kinase Tec (Homo sapiens, UniProt P42680); experiment: Inhibition of TEC (unknown origin)
T2 sequence (P42680 whole entry): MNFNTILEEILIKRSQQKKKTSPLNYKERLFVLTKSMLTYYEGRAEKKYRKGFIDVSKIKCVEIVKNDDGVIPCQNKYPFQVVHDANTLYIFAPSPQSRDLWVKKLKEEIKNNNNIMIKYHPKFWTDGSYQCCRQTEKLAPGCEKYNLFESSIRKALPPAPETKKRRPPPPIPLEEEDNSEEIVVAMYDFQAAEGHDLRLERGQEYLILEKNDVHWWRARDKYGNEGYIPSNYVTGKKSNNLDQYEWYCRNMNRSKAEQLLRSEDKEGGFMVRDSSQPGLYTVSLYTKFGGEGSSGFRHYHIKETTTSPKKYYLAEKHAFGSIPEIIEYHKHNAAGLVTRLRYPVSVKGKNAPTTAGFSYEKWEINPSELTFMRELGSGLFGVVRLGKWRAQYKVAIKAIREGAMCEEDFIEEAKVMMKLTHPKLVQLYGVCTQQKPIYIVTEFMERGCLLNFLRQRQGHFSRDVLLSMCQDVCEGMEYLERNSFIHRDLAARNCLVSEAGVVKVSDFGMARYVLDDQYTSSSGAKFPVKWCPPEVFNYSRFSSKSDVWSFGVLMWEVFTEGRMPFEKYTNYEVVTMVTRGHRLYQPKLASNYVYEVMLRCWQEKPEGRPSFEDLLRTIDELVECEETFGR

[22] = target: T3, Tyrosine-protein kinase TXK (Homo sapiens, UniProt P42681); experiment: Inhibition of TXK (unknown origin)
T3 sequence (P42681 whole entry): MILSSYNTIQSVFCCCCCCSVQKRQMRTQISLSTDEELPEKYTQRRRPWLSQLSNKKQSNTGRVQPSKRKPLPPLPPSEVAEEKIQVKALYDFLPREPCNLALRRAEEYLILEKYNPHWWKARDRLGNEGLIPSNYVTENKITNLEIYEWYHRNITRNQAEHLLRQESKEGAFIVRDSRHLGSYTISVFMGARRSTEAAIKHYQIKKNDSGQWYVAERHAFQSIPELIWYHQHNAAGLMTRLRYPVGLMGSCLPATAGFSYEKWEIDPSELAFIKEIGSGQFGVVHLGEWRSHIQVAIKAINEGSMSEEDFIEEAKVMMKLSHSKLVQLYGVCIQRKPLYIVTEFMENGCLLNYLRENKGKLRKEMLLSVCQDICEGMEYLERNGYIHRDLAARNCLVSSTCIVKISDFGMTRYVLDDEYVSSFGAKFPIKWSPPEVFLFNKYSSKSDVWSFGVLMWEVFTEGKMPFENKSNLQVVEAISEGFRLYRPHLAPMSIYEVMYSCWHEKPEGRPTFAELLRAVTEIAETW

Homo sapiens [23] = species: Homo sapiens; experiment: Selectivity ratio of IC50 for TEC (unknown origin) to IC50 for BTK (unknown origin)
[24] = target: Tyrosine-protein kinase Lck (Homo sapiens, UniProt P06239); experiment: Inhibition of LCK (unknown origin)
Homo sapiens [25] = species: Homo sapiens; experiment: Selectivity ratio of IC50 for FGR (unknown origin) to IC50 for BTK (unknown origin)
[26] = target: T4, Cytoplasmic tyrosine-protein kinase BMX (Homo sapiens, UniProt P51813); experiment: Inhibition of BMX (unknown origin)
T4 sequence (P51813 whole entry): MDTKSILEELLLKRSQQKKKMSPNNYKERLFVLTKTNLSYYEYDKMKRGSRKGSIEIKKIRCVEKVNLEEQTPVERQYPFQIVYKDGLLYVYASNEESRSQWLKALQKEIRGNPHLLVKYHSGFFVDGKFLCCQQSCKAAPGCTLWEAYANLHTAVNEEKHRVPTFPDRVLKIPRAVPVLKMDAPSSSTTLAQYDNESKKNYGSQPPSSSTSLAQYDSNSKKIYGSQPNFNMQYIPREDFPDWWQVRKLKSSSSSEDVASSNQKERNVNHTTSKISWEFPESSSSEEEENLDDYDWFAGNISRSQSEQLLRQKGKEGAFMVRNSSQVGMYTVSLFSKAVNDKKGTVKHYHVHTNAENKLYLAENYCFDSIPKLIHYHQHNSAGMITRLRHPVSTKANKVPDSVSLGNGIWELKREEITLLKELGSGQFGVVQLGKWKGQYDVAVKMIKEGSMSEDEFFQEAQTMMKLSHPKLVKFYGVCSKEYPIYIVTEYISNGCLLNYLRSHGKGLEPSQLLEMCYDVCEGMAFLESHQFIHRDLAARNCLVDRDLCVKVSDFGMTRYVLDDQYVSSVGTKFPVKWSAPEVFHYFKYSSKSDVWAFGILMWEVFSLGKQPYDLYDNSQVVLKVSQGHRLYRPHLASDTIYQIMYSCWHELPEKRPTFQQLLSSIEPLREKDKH

Homo sapiens [27] = species: Homo sapiens; experiment: Selectivity ratio of IC50 for ERBB4 (unknown origin) to IC50 for BTK (unknown origin)
Homo sapiens [28] = species: Homo sapiens; experiment: Selectivity ratio of IC50 for BMX (unknown origin) to IC50 for BTK (unknown origin)
Homo sapiens [29] = species: Homo sapiens; experiment: Selectivity ratio of IC50 for YES1 (unknown origin) to IC50 for BTK (unknown origin)
Homo sapiens [30] = species: Homo sapiens; experiment: Selectivity ratio of IC50 for CSK (unknown origin) to IC50 for BTK (unknown origin)
Homo sapiens [31] = species: Homo sapiens; experiment: Selectivity ratio of IC50 for LYNB (unknown origin) to IC50 for BTK (unknown origin)
[32] = target: Tyrosine-protein kinase Yes (Homo sapiens, UniProt P07947); experiment: Inhibition of YES1 (unknown origin)
Homo sapiens [33] = species: Homo sapiens; experiment: Selectivity ratio of IC50 for BLK (unknown origin) to IC50 for BTK (unknown origin)
[34] = Half life in rat at 10 mg/kg; assay type: ADME, organism-based; details: in vivo
[35] = Oral bioavailability in rat at 10 mg/kg; assay type: ADME, organism-based; details: in vivo
[36] = Total clearance in rat plasma at 10 mg/kg; assay type: ADME, organism-based
[37] = Total clearance in dog plasma at 2 mg/kg; assay type: ADME, organism-based, Canis lupus familiaris
[38] = Half life in dog at 2 mg/kg; assay type: ADME, organism-based, Canis lupus familiaris; details: in vivo
[39] = Oral bioavailability in dog at 2 mg/kg; assay type: ADME, organism-based, Canis lupus familiaris; details: in vivo

T1 sequence (Q06187 whole entry): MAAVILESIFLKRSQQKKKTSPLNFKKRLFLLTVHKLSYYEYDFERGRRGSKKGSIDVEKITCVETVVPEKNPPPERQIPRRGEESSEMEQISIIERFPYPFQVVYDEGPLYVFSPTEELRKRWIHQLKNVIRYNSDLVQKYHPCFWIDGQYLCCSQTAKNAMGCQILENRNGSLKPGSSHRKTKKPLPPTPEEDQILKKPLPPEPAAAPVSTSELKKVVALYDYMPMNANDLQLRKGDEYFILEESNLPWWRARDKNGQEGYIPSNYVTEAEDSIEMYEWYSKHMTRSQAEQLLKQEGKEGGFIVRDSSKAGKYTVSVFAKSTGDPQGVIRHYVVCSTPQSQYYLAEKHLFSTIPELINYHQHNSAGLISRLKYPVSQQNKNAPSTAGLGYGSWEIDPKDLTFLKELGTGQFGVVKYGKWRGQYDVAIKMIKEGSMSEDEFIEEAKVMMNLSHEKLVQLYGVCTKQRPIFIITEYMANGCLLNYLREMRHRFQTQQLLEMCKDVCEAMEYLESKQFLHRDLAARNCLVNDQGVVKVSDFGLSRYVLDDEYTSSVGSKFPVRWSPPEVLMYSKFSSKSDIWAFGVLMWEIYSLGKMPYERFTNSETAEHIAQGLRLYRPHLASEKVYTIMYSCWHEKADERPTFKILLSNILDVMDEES
Sequence of Voltage-gated inwardly rectifying potassium channel KCNH2 (Q12809 whole entry): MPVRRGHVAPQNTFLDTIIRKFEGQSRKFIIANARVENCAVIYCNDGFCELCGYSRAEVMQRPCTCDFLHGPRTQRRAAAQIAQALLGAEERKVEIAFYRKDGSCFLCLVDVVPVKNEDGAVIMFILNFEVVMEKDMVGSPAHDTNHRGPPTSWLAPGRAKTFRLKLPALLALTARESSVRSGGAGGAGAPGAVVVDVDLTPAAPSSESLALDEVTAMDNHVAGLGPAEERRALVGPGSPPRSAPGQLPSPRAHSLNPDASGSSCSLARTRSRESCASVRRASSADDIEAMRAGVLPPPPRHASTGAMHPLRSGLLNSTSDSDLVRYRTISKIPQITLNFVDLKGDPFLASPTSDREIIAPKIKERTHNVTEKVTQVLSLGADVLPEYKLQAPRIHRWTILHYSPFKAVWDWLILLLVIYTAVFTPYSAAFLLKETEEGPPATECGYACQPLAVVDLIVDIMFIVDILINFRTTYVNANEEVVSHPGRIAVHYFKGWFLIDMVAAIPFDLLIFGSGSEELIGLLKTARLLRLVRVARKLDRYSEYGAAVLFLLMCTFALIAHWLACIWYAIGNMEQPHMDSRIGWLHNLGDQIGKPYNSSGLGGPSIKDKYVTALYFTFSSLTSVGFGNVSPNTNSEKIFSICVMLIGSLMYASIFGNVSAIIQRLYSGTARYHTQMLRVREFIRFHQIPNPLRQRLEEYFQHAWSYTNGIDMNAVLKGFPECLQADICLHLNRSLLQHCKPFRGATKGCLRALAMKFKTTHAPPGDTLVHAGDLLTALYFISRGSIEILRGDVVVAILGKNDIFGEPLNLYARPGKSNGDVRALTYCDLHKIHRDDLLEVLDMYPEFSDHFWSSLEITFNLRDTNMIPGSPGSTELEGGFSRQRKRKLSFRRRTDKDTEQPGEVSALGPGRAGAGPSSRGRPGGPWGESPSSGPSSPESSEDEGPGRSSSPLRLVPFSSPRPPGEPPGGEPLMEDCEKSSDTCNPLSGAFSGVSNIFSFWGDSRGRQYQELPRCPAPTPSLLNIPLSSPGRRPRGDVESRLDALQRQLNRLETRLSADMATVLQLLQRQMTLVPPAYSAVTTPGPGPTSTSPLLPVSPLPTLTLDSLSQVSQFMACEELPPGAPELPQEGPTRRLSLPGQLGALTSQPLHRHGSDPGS
Sequence of Tyrosine-protein kinase Srms (Q9H3Y6 whole entry): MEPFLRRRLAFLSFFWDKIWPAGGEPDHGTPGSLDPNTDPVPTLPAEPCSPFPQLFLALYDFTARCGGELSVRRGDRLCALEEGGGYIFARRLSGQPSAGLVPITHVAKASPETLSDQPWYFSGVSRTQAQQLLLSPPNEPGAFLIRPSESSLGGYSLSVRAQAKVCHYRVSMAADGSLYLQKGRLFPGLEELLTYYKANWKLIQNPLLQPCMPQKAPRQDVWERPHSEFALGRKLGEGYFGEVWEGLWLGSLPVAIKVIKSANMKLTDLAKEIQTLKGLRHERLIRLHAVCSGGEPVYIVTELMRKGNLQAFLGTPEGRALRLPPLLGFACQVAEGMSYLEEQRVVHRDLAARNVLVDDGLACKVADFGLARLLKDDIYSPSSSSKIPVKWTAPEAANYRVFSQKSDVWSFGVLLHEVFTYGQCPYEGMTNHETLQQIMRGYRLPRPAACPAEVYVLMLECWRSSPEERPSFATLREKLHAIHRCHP
Sequence of Protein-tyrosine kinase 6 (Q13882 whole entry): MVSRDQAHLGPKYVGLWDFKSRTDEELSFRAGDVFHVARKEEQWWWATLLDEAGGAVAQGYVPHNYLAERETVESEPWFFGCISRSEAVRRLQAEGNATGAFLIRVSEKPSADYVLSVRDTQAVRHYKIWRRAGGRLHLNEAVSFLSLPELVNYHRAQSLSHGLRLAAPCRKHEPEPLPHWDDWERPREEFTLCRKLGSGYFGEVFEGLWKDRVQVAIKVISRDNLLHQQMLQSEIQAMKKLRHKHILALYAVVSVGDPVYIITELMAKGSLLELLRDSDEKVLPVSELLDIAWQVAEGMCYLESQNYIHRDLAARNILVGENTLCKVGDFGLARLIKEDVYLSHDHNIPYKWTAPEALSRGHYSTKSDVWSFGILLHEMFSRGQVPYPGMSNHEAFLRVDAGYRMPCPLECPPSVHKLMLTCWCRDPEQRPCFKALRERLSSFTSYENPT
Sequence of Tyrosine-protein kinase CSK (P41240 whole entry): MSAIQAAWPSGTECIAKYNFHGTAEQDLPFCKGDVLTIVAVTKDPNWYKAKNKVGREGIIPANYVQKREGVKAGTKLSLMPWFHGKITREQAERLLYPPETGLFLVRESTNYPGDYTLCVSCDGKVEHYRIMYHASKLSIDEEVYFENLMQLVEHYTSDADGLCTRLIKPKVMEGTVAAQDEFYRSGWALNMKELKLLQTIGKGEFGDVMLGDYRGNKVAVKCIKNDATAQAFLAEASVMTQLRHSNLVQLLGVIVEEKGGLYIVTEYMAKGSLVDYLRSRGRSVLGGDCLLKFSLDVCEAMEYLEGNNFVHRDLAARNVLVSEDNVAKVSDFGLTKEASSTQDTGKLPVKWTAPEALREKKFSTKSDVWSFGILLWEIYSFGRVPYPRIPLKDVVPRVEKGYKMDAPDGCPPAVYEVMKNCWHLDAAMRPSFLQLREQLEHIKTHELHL
Sequence of Tyrosine-protein kinase Lyn (P07948 whole entry): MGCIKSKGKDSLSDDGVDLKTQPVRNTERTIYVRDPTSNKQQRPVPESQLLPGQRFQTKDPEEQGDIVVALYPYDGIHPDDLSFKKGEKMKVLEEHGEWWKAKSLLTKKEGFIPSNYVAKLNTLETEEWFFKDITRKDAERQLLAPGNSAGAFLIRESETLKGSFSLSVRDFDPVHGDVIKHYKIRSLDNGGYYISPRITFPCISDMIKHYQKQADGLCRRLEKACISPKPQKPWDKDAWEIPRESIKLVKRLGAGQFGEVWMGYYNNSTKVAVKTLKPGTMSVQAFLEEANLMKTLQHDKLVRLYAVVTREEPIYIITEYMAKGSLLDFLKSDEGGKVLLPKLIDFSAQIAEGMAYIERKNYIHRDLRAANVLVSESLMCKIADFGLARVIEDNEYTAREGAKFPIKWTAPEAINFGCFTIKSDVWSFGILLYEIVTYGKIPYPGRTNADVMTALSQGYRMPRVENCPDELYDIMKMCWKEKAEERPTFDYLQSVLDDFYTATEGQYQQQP
Sequence of Tyrosine-protein kinase Fgr (P09769 whole entry): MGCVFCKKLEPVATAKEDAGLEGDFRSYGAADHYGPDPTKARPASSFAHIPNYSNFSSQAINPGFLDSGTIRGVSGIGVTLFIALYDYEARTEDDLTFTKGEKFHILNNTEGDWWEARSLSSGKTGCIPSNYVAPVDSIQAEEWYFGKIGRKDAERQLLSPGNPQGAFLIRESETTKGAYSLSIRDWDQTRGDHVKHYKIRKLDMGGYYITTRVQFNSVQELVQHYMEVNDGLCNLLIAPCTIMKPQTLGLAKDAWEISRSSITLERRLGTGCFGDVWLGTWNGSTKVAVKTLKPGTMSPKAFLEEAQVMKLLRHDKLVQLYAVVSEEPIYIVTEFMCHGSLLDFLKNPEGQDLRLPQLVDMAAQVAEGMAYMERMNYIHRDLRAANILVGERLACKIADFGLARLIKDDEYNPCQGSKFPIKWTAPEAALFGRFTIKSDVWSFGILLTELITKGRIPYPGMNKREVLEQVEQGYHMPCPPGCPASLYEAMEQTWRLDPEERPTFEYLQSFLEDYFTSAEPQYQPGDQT
Sequence of Tyrosine-protein kinase Blk (P51451 whole entry): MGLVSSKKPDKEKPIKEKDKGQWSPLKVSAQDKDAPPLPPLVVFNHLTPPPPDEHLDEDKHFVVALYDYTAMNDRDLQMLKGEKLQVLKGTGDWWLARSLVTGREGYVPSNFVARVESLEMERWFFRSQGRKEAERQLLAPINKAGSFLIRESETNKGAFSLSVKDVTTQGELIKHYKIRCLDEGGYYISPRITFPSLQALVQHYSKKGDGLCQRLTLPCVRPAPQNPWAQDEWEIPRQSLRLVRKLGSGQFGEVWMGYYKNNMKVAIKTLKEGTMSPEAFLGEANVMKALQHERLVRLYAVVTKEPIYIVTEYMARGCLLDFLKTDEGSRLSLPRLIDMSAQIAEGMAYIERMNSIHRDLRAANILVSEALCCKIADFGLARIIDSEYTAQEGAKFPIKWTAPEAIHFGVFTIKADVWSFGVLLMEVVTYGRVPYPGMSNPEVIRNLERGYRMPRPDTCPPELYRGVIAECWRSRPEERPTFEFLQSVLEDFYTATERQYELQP

Row | SMILES | IC50 [1] [nM] | Ratio IC50 (Homo sapiens [2]) | Ratio IC50 (Homo sapiens [3]) | Ratio IC50 (Homo sapiens [4]) | IC50 [5] [nM] | IC50 [6] [nM] | IC50 [7] [nM] | Ratio IC50 (Homo sapiens [8]) | IC50 [9] [nM] | IC50 [10] [nM] | IC50 [11] [nM] | IC50 [12] [nM] | Ratio IC50 (Homo sapiens [13]) | IC50 [14] [nM] | Ratio IC50 (Homo sapiens [15]) | Ratio IC50 (Homo sapiens [16]) | IC50 [17] [nM] | IC50 [18] [nM] | IC50 [19] [nM] | IC50 [20] [nM] | also measured
1 | Nc1nccn2c([C@@H]3CCCN(C4CCOCC4)C3)nc(-c3ccc(C(=O)Nc4cc(C(F)(F)F)ccn4)cc3F)c12 | 22 | 58 | 60 | 102 | 100 | 105 | 77 | 278 | 0.8 to 0.83 | 65 | 455 | 59 | 93 | 48 | 127 | 9 | 115 | 85 | 50 | 29 | IC50 [21]: 170 nM; IC50 [22]: 231 nM; Ratio IC50 (Homo sapiens [23]): 205; IC50 [24]: 7 nM; Ratio IC50 (Homo sapiens [25]): 26; IC50 [26]: 127 nM; Ratio IC50 (Homo sapiens [27]): 71; Ratio IC50 (Homo sapiens [28]): 153; Ratio IC50 (Homo sapiens [29]): 38; Ratio IC50 (Homo sapiens [30]): 548; Ratio IC50 (Homo sapiens [31]): 138; IC50 [32]: 32 nM; Ratio IC50 (Homo sapiens [33]): 35
2 | CC(=O)N1CCC[C@@H](c2nc(-c3ccc(C(=O)Nc4cc(C(F)(F)F)ccn4)cc3F)c3c(N)nccn23)C1 |  |  |  |  | 2400 |  |  |  |  |  |  |  |  |  |  |  |  |  |  |  | 
3 | COCC(=O)N1CCC[C@@H](c2nc(-c3ccc(C(=O)Nc4cc(C(F)(F)F)ccn4)cc3F)c3c(N)nccn23)C1 | 28 | 273 | 86 | 687 | 4500 | 188 | 55 | 203 | 0.2 to 0.22 | 13 | 261 | 71 | 251 | 60 | 853 | 51 | 74 | 151 | 19 | 9 | IC50 [21]: 63 nM; IC50 [22]: 45 nM; Ratio IC50 (Homo sapiens [23]): 287; IC50 [24]: 11 nM; Ratio IC50 (Homo sapiens [25]): 127; IC50 [26]: 20 nM; Ratio IC50 (Homo sapiens [27]): 322; Ratio IC50 (Homo sapiens [28]): 93; Ratio IC50 (Homo sapiens [29]): 167; Ratio IC50 (Homo sapiens [30]): 1180; Ratio IC50 (Homo sapiens [31]): 335; IC50 [32]: 37 nM; Ratio IC50 (Homo sapiens [33]): 39
4 | C[C@H]1CO[C@@H](c2nc(-c3ccc(C(=O)Nc4cc(C(F)(F)F)ccn4)cc3F)c3c(N)nccn23)CN1C(=O)C1CC1 |  |  |  |  |  |  |  |  |  |  |  |  |  |  |  |  |  |  |  |  | half-life [34]: 234 min; bioavailability [35]: 40%; clearance [36]: 4.2 mL/min/kg; clearance [37]: 1.6 mL/min/kg; half-life [38]: 528 min; bioavailability [39]: 88%
5 | CC1(C(=O)N2CC[C@@H](c3nc(-c4ccc(C(=O)Nc5cc(C(F)(F)F)ccn5)cc4)c4c(N)nccn34)C2)COC1 |  |  |  |  | 2500 |  |  |  |  |  |  |  |  |  |  |  |  |  |  |  | 
6 | COCCC(=O)N1CCSC(c2nc(-c3ccc(C(=O)Nc4cc(C(F)(F)F)ccn4)cc3)c3c(N)nccn23)C1 (stereo not given) |  |  |  |  | 1800 |  |  |  |  |  |  |  |  |  |  |  |  |  |  |  | 
